EC50 data for 10 molecules are collected here from patent publication US8242151B2, “Tricyclic compounds” (Kyowa Hakko Kirin Co., Ltd., priority 2007, dated 2012).

The assay deals with T1, GAL4-PPARγ chimeric nuclear receptor (human PPARγ ligand binding region) (Homo sapiens, UniProt P37231).
T1 construct: expressed in transfected cells; host or cells: HEK293EBNA cells
T1 sequence (P37231 174-475 isoform P37231-2): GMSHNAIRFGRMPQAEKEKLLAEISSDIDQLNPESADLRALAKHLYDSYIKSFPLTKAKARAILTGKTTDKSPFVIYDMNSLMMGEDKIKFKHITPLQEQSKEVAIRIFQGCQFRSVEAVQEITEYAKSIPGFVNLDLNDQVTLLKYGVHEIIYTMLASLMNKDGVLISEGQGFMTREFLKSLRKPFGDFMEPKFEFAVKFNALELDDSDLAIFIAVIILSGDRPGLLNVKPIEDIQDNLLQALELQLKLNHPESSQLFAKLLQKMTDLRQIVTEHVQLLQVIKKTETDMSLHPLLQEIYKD
Put plainly: Transactivation assay of PPARγ by transient gene transfer (GAL4-PPARγ luciferase reporter). Format: cell-based. As to conditions: HEK293EBNA cells, 24 hr; concentration showing 50% of efficacy; activity relative to pioglitazone 10 μmol/L = 100%. The method, then: The agonist activity of compound (I) to PPARγ was determined by a transactivation assay method using a chimeric nuclear receptor of a DNA binding region of a yeast transcription factor GAL4 and a PPARγ ligand binding region. Specifically, the PPARγ agonist activity of compound (I) was evaluated by the following method based on the method of Lehmann et al. (J Biol. Chem., 1995, vol. 270, page 12953).
HEK293EBNA cells cultured in Dulbecco's Modified Eagle medium (Invitrogen) containing 10 v/v % fetal calf serum (Invitrogen) were used. 30 mL of the above-mentioned cells (density: 1×10^5 cells/mL) were inoculated in a […] culture dish (Iwaki Glass), and cultured overnight. Using SuperFect Transfection Reagent (QIAGEN), a plasmid expressing a GAL4-PPARγ chimeric nuclear receptor fusing 174-475 amino acids, which are human PPARγ ligand binding region, and 1-147 amino acids, which are GAL4 DNA binding region, and a reporter plasmid expressing a GAL4 responsive luciferase were transiently introduced into the cells at a proportion of 4:1. After 5 hr from gene introduction, the cells were detached from the culture dish, and the detached cells (density: 2×10^4 cells/mL) were inoculated by 100 μL in each well of a 96 well white plate (SUMITOMO BAKELITE), and cultured overnight. The medium was removed, compound (I) diluted in various concentrations with serum-free Dulbecco's Modified Eagle medium was added by 100 μL, and the mixture was reacted under a 5% carbon dioxide gas stream (5% CO2) at 37° C. for 24 hr. On the other hand, as a positive control, 10 μmol/L of pioglitazone (100 μL) was added, and the mixture was reacted under a 5% carbon dioxide gas stream (5% CO2) at 37° C. for 24 hr. As a substrate of luciferase, 100 μL of Steady-Glo (Promega) was added to each well and the mixture was thoroughly stirred. Immediately thereafter, the chemical luminescence due to luciferase was measured using TopCount NTX (Packard).
The agonist activity (activity rate (%)) of compound (I) to PPARγ was calculated according to the following formula, as a relative activity when the agonist activity on addition of pioglitazone (10 μmol/L) was 100%.
For orientation: In a reporter assay the amount or activity of a reporter protein is the signal.
Regarding `CCc1nc2c(C)cc(C)nc2n1Cc1ccc2c(c1)CCc1ccccc1/C2=C(\C)c1nn[nH]n1` [Compound 62, (Z)-2-(2-ethyl-5,7-dimethyl-3H-imidazo[4,5-b]pyridin-3-yl)methyl-5-[1-(1H-tetrazol-5-yl)ethylidene]-10,11-dihydro-5H-dibenzo[a,d]cycloheptene], the EC50 (as a rule, the concentration at which the effect is half-maximal) is 251 nM.

`CCc1nc2c(C(F)(F)F)cc(C)nc2n1Cc1ccc2c(c1)CCc1ccccc1/C2=C\c1noc(=O)[nH]1` [Compound 37, (E)-2-(2-ethyl-5-methyl-7-trifluoromethyl-3H-imidazo[4,5-b]pyridin-3-yl)methyl-5-(5-oxo-4,5-dihydro-1,2,4-oxadiazol-3-yl)methylene-10,11-dihydro-5H-dibenzo[a,d]cycloheptene] returned an EC50 of 415 nM.

In turn, `Cc1cc(C)c2nc(C3CC3)n(Cc3ccc4c(c3)CCc3ccccc3N4C(C)c3noc(=O)[nH]3)c2n1` (stereo not shown) [Compound 70, 2-(2-cyclopropyl-5,7-dimethyl-3H-imidazo[4,5-b]pyridin-3-yl)methyl-5-[1-(5-oxo-4,5-dihydro-1,2,4-oxadiazol-3-yl)ethyl]-10,11-dihydro-5H-dibenzo[b,f]azepine] came in with an EC50 of 53 nM. Against the preceding molecule, the EC50 is about 7.8-fold lower. In turn, `CCCc1nc2c(C)cccc2n1Cc1ccc2c(c1)CCc1ccccc1/C2=C(/C)c1noc(=O)[nH]1` [Compound 83, (E)-2-(4-methyl-2-propylbenzimidazol-1-yl)methyl-5-[1-(5-oxo-4,5-dihydro-1,2,4-oxadiazol-3-yl)ethylidene]-10,11-dihydro-5H-dibenzo[a,d]cycloheptene] displayed an EC50 of 342 nM.

With `CCc1nc2c(Cl)cc(C)nc2n1Cc1ccc2c(c1)OCc1ccccc1/C2=C\c1noc(=O)[nH]1` [Compound 106, (E)-3-(7-chloro-2-ethyl-5-methyl-3H-imidazo[4,5-b]pyridin-3-yl)methyl-11-(5-oxo-4,5-dihydro-1,2,4-oxadiazol-3-yl)methylene-6,11-dihydrodibenzo[b,e]oxepine], the response was half-maximal at 310 nM (EC50).

The molecule `CCOc1nc2cccnc2n1Cc1ccc2c(c1)CCc1ccccc1/C2=C(/C)c1noc(=O)[nH]1` [Compound 91, (E)-2-(2-ethoxy-3H-imidazo[4,5-b]pyridin-3-yl)methyl-5-[1-(5-oxo-4,5-dihydro-1,2,4-oxadiazol-3-yl)ethylidene]-10,11-dihydro-5H-dibenzo[a,d]cycloheptene] registered an EC50 of 1520 nM.

Consider `C/C(=C1/c2ccccc2COc2cc(Cn3c(C4CC4)nc4c(C)cc(C)nc43)ccc21)c1noc(=O)[nH]1` [Compound 112, (E)-3-(2-cyclopropyl-5,7-dimethyl-3H-imidazo[4,5-b]pyridin-3-yl)methyl-11-[1-(5-oxo-4,5-dihydro-1,2,4-oxadiazol-3-yl)ethylidene]-6,11-dihydrodibenzo[b,e]oxepine], for which the midpoint of the response, the EC50, lay at 1130 nM.

Molecule `CCCc1nc2c(C)cccc2n1Cc1ccc2c(c1)CCc1ccccc1/C2=C\c1noc(=O)[nH]1` [Compound 33, (E)-2-(4-methyl-2-propylbenzimidazol-1-yl)methyl-5-(5-oxo-4,5-dihydro-1,2,4-oxadiazol-3-yl)methylene-10,11-dihydro-5H-dibenzo[a,d]cycloheptene] yielded an EC50 of 103 nM. The result for `CCCc1nc(CC)c(C(=O)OCC)n1Cc1ccc2c(c1)CCc1ccccc1N2C(C)c1nnn[nH]1` (stereo not shown) [Compound 28, 2-(5-ethoxycarbonyl-4-ethyl-2-propyl-1H-imidazol-1-yl)methyl-5-[1-(1H-tetrazol-5-yl)ethyl]-10,11-dihydro-5H-dibenzo[b,f]azepine] reads 325 nM; that for `CCCc1nc2c(C)cccc2n1Cc1ccc2c(c1)CCc1ccccc1N2Cc1noc(=O)[nH]1` [Compound 6, 2-(4-methyl-2-propylbenzimidazol-1-yl)methyl-5-(5-oxo-4,5-dihydro-1,2,4-oxadiazol-3-yl)methyl-10,11-dihydro-5H-dibenzo[b,f]azepine], 97 nM.
